Laboratory results from PMC3062375 (Biochemistry, 2011).
Non-standard residues stand in square brackets, D forms with d. Residues, ends and D or L forms follow the SMILES beside them. No end group written: not given here. pS = N[C@@H](COP(=O)(O)O)C(=O)O

Target: T1, S100A11 protein (Sus scrofa, UniProt P31950)
T1 sequence (P31950 1-99): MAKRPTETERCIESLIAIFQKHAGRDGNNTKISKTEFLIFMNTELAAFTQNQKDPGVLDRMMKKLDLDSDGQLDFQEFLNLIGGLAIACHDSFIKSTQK
Assay: Tryptophan fluorescence titration of peptide binding to S100A11
Set-up: species or system porcine

Q: Which Kd does the source give for `CC[C@H](C)[C@H](NC(=O)[C@H](Cc1ccccc1)NC(=O)[C@H](Cc1c[nH]c2ccccc12)NC(=O)[C@H](C)NC(=O)[C@H](CCC(N)=O)NC(=O)[C@H](CCCCN)NC(=O)[C@H](CC(C)C)NC(=O)[C@H](Cc1ccccc1)NC(=O)[C@H](CCC(=O)O)NC(=O)[C@H](COP(=O)(O)O)NC(=O)[C@@H](NC(=O)[C@H](CCSC)NC(=O)[C@H](C)NC(C)=O)C(C)C)C(=O)N[C@@H](CCC(=O)O)C(=O)N[C@@H](CC(N)=O)C(=O)N[C@@H](CCC(=O)O)C(=O)N[C@@H](CCC(=O)O)C(=O)N[C@@H](CCC(N)=O)C(=O)O` [Ac1−18P, Ac-AMV[pSer]EFLKQAWFIENEEQ] (Ac-AMV[pS]EFLKQAWFIENEEQ-OH) here?
A: 56.8 ± 1 µM

Q: For “Ac-AMVSEFLKQAWFIENEEQ [Ac1−18, Ac-AMVSEFLKQAWFIENEEQ]”, which Kd is on record?
A: 2.1 ± 0.2 µM
